Experimental data reported in patent US12617779B2, “Self degradation-type CDK9 inhibitor prodrug and liposome encapsulating same” (Sumitomo Pharma Co., Ltd., priority 2021, dated 2026).
One block for each molecule: values may come before it.

How the values were obtained:
[1] = Evaluation of conversion rate to active form in buffer solution (Experimental Example 1); format: physicochemical; details: for Conversion to Alvocidib at pH 7.4: pH 7.4, 37° C., up to 3 hours
How it was run: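 HPLC read-out: residual parent and Alvocidib production rate after 0, 0.5, 1, 2 and 3 hours. Compounds sat at 25 umol/L, 37° C, in buffers from pH 5.0 to 7.4 (50 mM citrate below pH 6.0, 50 mM phosphate otherwise).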

[2] = Evaluation of conversion rate to active form in human plasma (Experimental Example 3); format: in vitro ADME; details: human, 0.2 μmol/L
Method: (§1) For Example 1, Example 2, Example 3, Example 4, Example 5, Example 6, Comparative Example 3, Comparative Example 4, Comparative Example 6, Comparative Example 7, Comparative Example 8, Comparative Example 9, Comparative Example 10 and Comparative Example 12, the attrition rate of the test compound and the conversion rate of the test compound to Alvocidib in human plasma and BALB/c mouse plasma were calculated by the following method.
(§2) The test compound was added to human plasma or BALB/c mouse plasma at a concentration of 0.2 μmol/L, and incubated at 37° C. The peak areas of the test compound and Alvocidib in the sample were determined by LC-MS/MS after 0, 30 and 60 minutes for Example 1, Example 2, Example 3, Example 4, Example 5 and Example 6, and after 0, 60 and 120 minutes for Comparative Example 3, Comparative Example 4, Comparative Example 6, Comparative Example 7, Comparative Example 8, Comparative Example 9, Comparative Example 10 and Comparative Example 12, and the attrition rate of the test compound and the conversion rate of the test compound to Alvocidib were calculated by the following formula. Attrition rate of test compound (%):(peak area of test compound in sample/peak area of test compound in sample after 0 minute)×100 Conversion rate to Alvocidib (%):(peak area of Alvocidib in sample/peak area of Alvocidib in reaction solution containing 0.2 μmol/L Alvocidib)×100
(§3) The measurement conditions for LC-MS/MS are as follows. • HPLC: Prominence system (Shimadzu Corporation) • MS/MS: • Example 1, Example 2, Example 3, Example 4, Example 5, Example 6, Comparative Example 8 (mouse), Comparative Example 10 (mouse) and Comparative Example 12 (mouse) • QTRAP5500 (SCIEX) • Comparative Example 6, Comparative Example 7, Comparative Example 8 (human), Comparative Example 9, Comparative Example 10 (human) and Comparative Example 12 (human) • 4000 QTRAP (SCIEX) • column: • other than Example 3 and Example 4 • Cadenza CD-C18, 3 μm, 50×2 mm (Imtakt Corporation) • Example 3 and Example 4 • Kinetex C8, 2.6 μm, 50×2.1 mm (Phenomenex) • column temperature: 40° C. • mobile phase: • A: water containing 0.1% formic acid • B: acetonitrile containing 0.1% formic acid • A/B (min): • Example 1, Example 2, Example 5, Example 6, Comparative Example 8 (mouse), Comparative Example 10 (mouse) and Comparative Example 12 (mouse) • 90/10(0)→40/60(5.0)→10/90(5.1)→10/90(6.5)→90/10(6.6)→90/10(8.0) • Example 3 and Example 4 • 86/14(0)→86/14(3.5)→10/90(5.5)→10/90(6.5)→86/14(6.6)→86/14(9.5) • Comparative Example 6, Comparative Example 7, Comparative Example 8 (human), Comparative Example 9, Comparative Example 10 (human) and Comparative Example 12 (human) • 90/10(0)→10/90(2.5)→10/90(3.5)→90/10(3.6)→90/10(5.0) • flow rate: 0.4 mL/min • detection: ESI (positive mode) • injection: 1 to 5 μL

[3] = Evaluation of conversion rate to active form in BALB/c mouse plasma (Experimental Example 3); format: in vitro ADME; details: BALB/c, mouse, 0.2 μmol/L
Method: as §1, §2, §3

Production rate of Alvocidib ([1]; pH5.0, 0 hr): 2.0%
Residual rate ([1]; pH5.0, 0 hr): 93.4%
Production rate of Alvocidib ([1]; pH5.0, 0.5 hr): 2.3%
Residual rate ([1]; pH5.0, 0.5 hr): 93.2%
Production rate of Alvocidib ([1]; pH5.0, 1 hr): 2.7%
Residual rate ([1]; pH5.0, 1 hr): 92.7%
Production rate of Alvocidib ([1]; pH5.0, 2 hr): 3.7%
Residual rate ([1]; pH5.0, 2 hr): 91.4%
Production rate of Alvocidib ([1]; pH5.0, 3 hr): 4.2%
Residual rate ([1]; pH5.0, 3 hr): 91.2%
Production rate of Alvocidib ([1]; pH5.5, 0 hr): 2.0%
Residual rate ([1]; pH5.5, 0 hr): 93.2%
Production rate of Alvocidib ([1]; pH5.5, 0.5 hr): 2.7%
Residual rate ([1]; pH5.5, 0.5 hr): 92.7%
Production rate of Alvocidib ([1]; pH5.5, 1 hr): 3.7%
Residual rate ([1]; pH5.5, 1 hr): 91.7%
Production rate of Alvocidib ([1]; pH5.5, 2 hr): 5.5%
Residual rate ([1]; pH5.5, 2 hr): 89.9%
Production rate of Alvocidib ([1]; pH5.5, 3 hr): 6.8%
Residual rate ([1]; pH5.5, 3 hr): 88.7%
Production rate of Alvocidib ([1]; pH6.0, 0 hr): 2.1%
Residual rate ([1]; pH6.0, 0 hr): 93.1%
Production rate of Alvocidib ([1]; pH6.0, 0.5 hr): 4.4%
Residual rate ([1]; pH6.0, 0.5 hr): 90.7%
Production rate of Alvocidib ([1]; pH6.0, 1 hr): 7.2%
Residual rate ([1]; pH6.0, 1 hr): 88.6%
Production rate of Alvocidib ([1]; pH6.0, 2 hr): 12.8%
Residual rate ([1]; pH6.0, 2 hr): 83.1%
Production rate of Alvocidib ([1]; pH6.0, 3 hr): 16.3%
Residual rate ([1]; pH6.0, 3 hr): 79.7%
Production rate of Alvocidib ([1]; pH6.5, 0 hr): 2.3%
Residual rate ([1]; pH6.5, 0 hr): 93.2%
Production rate of Alvocidib ([1]; pH6.5, 0.5 hr): 5.1%
Residual rate ([1]; pH6.5, 0.5 hr): 90.9%
Production rate of Alvocidib ([1]; pH6.5, 1 hr): 8.8%
Residual rate ([1]; pH6.5, 1 hr): 87.4%
Production rate of Alvocidib ([1]; pH6.5, 2 hr): 15.6%
Residual rate ([1]; pH6.5, 2 hr): 81.1%
Production rate of Alvocidib ([1]; pH6.5, 3 hr): 20.2%
Residual rate ([1]; pH6.5, 3 hr): 76.6%
Production rate of Alvocidib ([1]; pH7.0, 0 hr): 2.1%
Residual rate ([1]; pH7.0, 0 hr): 93.2%
Production rate of Alvocidib ([1]; pH7.0, 0.5 hr): 5.2%
Residual rate ([1]; pH7.0, 0.5 hr): 92.3%
Production rate of Alvocidib ([1]; pH7.0, 1 hr): 8.5%
Residual rate ([1]; pH7.0, 1 hr): 88.2%
Production rate of Alvocidib ([1]; pH7.0, 2 hr): 15.5%
Residual rate ([1]; pH7.0, 2 hr): 81.5%
Production rate of Alvocidib ([1]; pH7.0, 3 hr): 19.5%
Residual rate ([1]; pH7.0, 3 hr): 75.7%
Production rate of Alvocidib ([1]; pH7.4, 0 hr): 2.1%
Residual rate ([1]; pH7.4, 0 hr): 93.2%
Conversion to Alvocidib at pH 7.4 [1]: slowly converted to Alvocidib
Production rate of Alvocidib ([1]; pH7.4, 0.5 hr): 4.6%
Residual rate ([1]; pH7.4, 0.5 hr): 92.2%
Production rate of Alvocidib ([1]; pH7.4, 1 hr): 7.5%
Residual rate ([1]; pH7.4, 1 hr): 89.3%
Production rate of Alvocidib ([1]; pH7.4, 2 hr): 13.3%
Residual rate ([1]; pH7.4, 2 hr): 82.9%
Production rate of Alvocidib ([1]; pH7.4, 3 hr): 17.1%
Residual rate ([1]; pH7.4, 3 hr): 78.4%
Production rate (%) of Alvocidib ([2]; 0 min): 0%
Residual rate (%) of test compound ([2]; 0 min): 100%
Production rate (%) of Alvocidib ([2]; 60 min): 2%
Residual rate (%) of test compound ([2]; 60 min): 104%
Production rate (%) of Alvocidib ([2]; 120 min): 3%
Residual rate (%) of test compound ([2]; 120 min): 105%
Production rate (%) of Alvocidib ([3]; 0 min): 1%
Residual rate (%) of test compound ([3]; 0 min): 100%
Production rate (%) of Alvocidib ([3]; 60 min): 5%
Residual rate (%) of test compound ([3]; 60 min): 84%
Production rate (%) of Alvocidib ([3]; 120 min): 6%
Residual rate (%) of test compound ([3]; 120 min): 89%
SMILES: CC(C)[C@H](N)C(=O)O[C@@H]1CN(C)CC[C@@H]1c1c(O)cc(O)c2c(=O)cc(-c3ccccc3Cl)oc12 [Comparative Example 10, reference compound]

Production rate of Alvocidib ([1]; pH7.4, 0 hr): 1.4%
Residual rate ([1]; pH7.4, 0 hr): 98.0%
Conversion to Alvocidib at pH 7.4 [1]: slowly converted to Alvocidib
Production rate of Alvocidib ([1]; pH7.4, 0.5 hr): 1.5%
Residual rate ([1]; pH7.4, 0.5 hr): 97.5%
Production rate of Alvocidib ([1]; pH7.4, 1 hr): 1.6%
Residual rate ([1]; pH7.4, 1 hr): 97.6%
Production rate of Alvocidib ([1]; pH7.4, 2 hr): 1.8%
Residual rate ([1]; pH7.4, 2 hr): 97.6%
Production rate (%) of Alvocidib ([2]; 0 min): 0%
Residual rate (%) of test compound ([2]; 0 min): 100%
Production rate (%) of Alvocidib ([2]; 60 min): 23%
Residual rate (%) of test compound ([2]; 60 min): 74%
Production rate (%) of Alvocidib ([2]; 120 min): 32%
Residual rate (%) of test compound ([2]; 120 min): 58%
Production rate (%) of Alvocidib ([3]; 0 min): 2%
Residual rate (%) of test compound ([3]; 0 min): 100%
Production rate (%) of Alvocidib ([3]; 60 min): 19%
Residual rate (%) of test compound ([3]; 60 min): 85%
Production rate (%) of Alvocidib ([3]; 120 min): 27%
Residual rate (%) of test compound ([3]; 120 min): 76%
SMILES: CN1CC[C@H](c2c(O)cc(O)c3c(=O)cc(-c4ccccc4Cl)oc23)[C@H](OC(=O)c2ccccc2F)C1 [Comparative Example 12]
